Source: patent US11458127B2, “Methods of treating brain tumors using combination therapy” (SERVIER PHARMACEUTICALS LLC, priority 2017, dated 2022)
Read-outs that look alike come from different tables or passages of the source.

Columns and labels:
mutant IDH2 (mIDH2) = settings: cited from earlier work
mIDH1 cells = settings: in vitro; R. J. Molenaar et al. 2015; cited from earlier work
mutant IDH1 (mIDH1) = settings: cited from earlier work
mIDH1-driven gliomas = settings: some model systems; D. Rohle et al. 2013; cited from earlier work
mutant IDH1 proteins [1] = settings: cellular assays; cited from earlier work
mutant IDH1 proteins [2] = settings: biochemical assays; cited from earlier work
2HG production = assay: animal or person; settings: po, read-out: Inhibition of 2HG production within the brain tumors
Procedure: Ivosidenib was orally dosed at 150 mg/kg, twice daily, for Groups 3-5.

Cc1ccccc1C(C(=O)NC1CCCCC1)N(C(=O)Cn1ccnc1C)c1cccc(F)c1 (stereo not shown) [AGI-5198]
Inhibition of mutant IDH2 (mutant IDH2 (mIDH2)): not mutant IDH2 (mIDH2) | Sensitivity of treated mIDH1 cells to radiation therapy (mIDH1 cells): desensitized to radiation therapy | Inhibition of mutant IDH1 (mutant IDH1 (mIDH1)): inhibit mutant IDH1 (mIDH1) | Effect on growth of mIDH1-driven gliomas (mIDH1-driven gliomas): can repress growth of mIDH1-driven gliomas in some model systems

N#Cc1ccnc(N2C(=O)CC[C@H]2C(=O)N(c2cncc(F)c2)[C@H](C(=O)NC2CC(F)(F)C2)c2ccccc2Cl)c1 [Ivosidenib, (S)—N—((S)-1-(2-Chlorophenyl)-2-(3,3-difluorocyclobutylamino)-2-oxoethyl)-1-(4-cyanopyridin-2-yl)-N-(5-fluoropyridin-3-yl)-5-oxopyrrolidine-2-carboxamide]
Activity on mutant IDH1 proteins (mutant IDH1 proteins [1]): inhibitor of mutant IDH1 proteins | Activity on mutant IDH1 proteins (mutant IDH1 proteins [2]): inhibitor of mutant IDH1 proteins | inhibition at 150 mg/kg (2HG production): > 98%
